Measurements from patent publication US9981970B2, “Bicyclic ureas and thiadiazolidine-1, 1-dioxides as CETP inhibitors” (Merck Sharp & Dohme Corp., priority 2013, dated 2018).
Where two headings read alike, the source gives them in different places.

Target: T1, endogenous CETP from serum (Homo sapiens, UniProt P11597)
T1 construct: yielding a concentration of approximately 15 nM endogenous CETP in the assay; from tissue; host or cells: human serum
T1 sequence (P11597 18-493): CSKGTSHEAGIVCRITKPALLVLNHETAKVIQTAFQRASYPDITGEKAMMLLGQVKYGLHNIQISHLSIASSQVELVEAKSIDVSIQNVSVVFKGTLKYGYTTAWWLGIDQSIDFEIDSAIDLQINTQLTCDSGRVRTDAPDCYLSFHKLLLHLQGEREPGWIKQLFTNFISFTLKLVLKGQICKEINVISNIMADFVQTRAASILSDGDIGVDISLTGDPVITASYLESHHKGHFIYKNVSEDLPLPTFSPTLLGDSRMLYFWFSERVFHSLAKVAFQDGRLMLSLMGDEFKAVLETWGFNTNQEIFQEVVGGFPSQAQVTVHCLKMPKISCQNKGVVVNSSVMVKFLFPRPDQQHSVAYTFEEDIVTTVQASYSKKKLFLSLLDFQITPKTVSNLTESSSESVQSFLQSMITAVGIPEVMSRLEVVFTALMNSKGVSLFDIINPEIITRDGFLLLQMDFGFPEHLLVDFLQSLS
Experiment: RTA assay in 95% human serum (in vitro radioactive assay of CETP-catalyzed CE and TG transfer)
Format: biochemical
Description: In Vitro Radioactive Assays of CETP-Catalyzed CE and TG Transfer (RTA Assay)
Reagents and sources are: [3H] cholesteryl oleate (GE #TRK.886), [3H] Triolein (Perkin-Elmer NET-431), Butylated hydroxyl toluene (Aldrich, #D4740-4), DOPC (Sigma, # P6354), Sodium Bromide (Fisher scientific #S255-500), PEG 8000 (Fisher, #BP233-1), and human HDL (Intracel Corp #RP-036).
Both assays measure the transfer of [3H] cholesteryl oleate or [3H] triolein from exogenous LDL to HDL.
Radiolabeled donor particles are generated by first combining 100 μl of 200 μM butylated hydroxyl toluene in CHCl3, 216 μL of 21.57 mM DOPC in EtOH, and either 500 μCi [3H]-triolein (Perkin Elmer #NET-431) or 500 μCi [3H]-cholesteryl oleate (GE #TRK886) in a glass tube. Reagents are mixed, dried under nitrogen, and then resuspended in 2 mL of 50 mM Tris, 27 μM EDTA at pH 7.4. After a brief vortex, the solution is sonicated until clear and mixed with 20 mL of fresh human serum. The mixture is incubated overnight at 37° C. The [3H] labeled LDL substrate is separated at 1.063 g/ml density by sequential ultracentrifugal flotation in NaBr according to the method of Havel, Eder, et al., 1955, and Chapman, Goldstein, et al., 1981. Once isolated the particles are dialyzed 3× in CETP buffer (50 mM Tris, pH 7.4, 100 mM NaCl, 1 mM EDTA). Human HDL is purchased from Intracel and used as the acceptor particles.
Transfer assays are performed in a 96-well v-bottom polypropylene plate. For the RTA using recombinant CETP (2% RTA), an assay cocktail is prepared with the final concentrations 128 μg/mL HDL, 20 nM rCETP, 2% human serum, and 1×CETP buffer. 1 μL of each test compound diluted in DMSO is added to 47 μL of assay cocktail per well and incubated at 37° C. for 1 hour. To initiate the transfer reaction, 2 μL radiolabeled LDL is added. After an additional 60 min of incubation at 37° C., the transfer action is terminated by precipitation of LDL with an equal volume of 20% WN PEG 8000. The plates are centrifuged at 2000 rpm for 30 minutes at 4° C. A 40 μL aliquot of the HDL-containing supernatant is transferred to a Packard Optiplate™ with 200 μL of MicroScint™ 20. After mixing, plates are counted by liquid scintillation. Counts present in the supernatant for blanks (wells containing only HDL acceptor, CETP buffer and DMSO) are subtracted from those containing test compounds and used to correct for non-specific transfer.
This is then combined with HDL and CETP buffer and the reaction proceeds as above and is terminated as described.
Comparison of the counts of samples with inhibitors to an uninhibited (DMSO only) positive control yield a percent inhibition. A plot of percent inhibition vs. log of inhibitor concentration, fit to a Sigmoidal 4 parameter equation is used to calculate IC50.
Starting materials are commercially available or are made using known procedures or as shown below. The examples may be synthesized according to the general schemes provided below and by using the synthetic intermediates that are described. […] When compounds of Formula I are mentioned herein, such compounds include compounds defined generically by Formula I and also the specific examples disclosed herein.

[1] = RTA assay in 95% human serum, endogenous CETP, read-out: RTA (95% HS)
[2] = Table 1, data generally obtained using the RTA assay in 95% human serum, read-out: IC50

Row | Structure (SMILES) | IC50 [1] [nM] | IC50 [2] [nM]
1 | COc1ncc(-c2ccc(C(=O)O)cc2C)cc1-c1ccc(C(F)(F)F)cc1[C@@H]1CC[C@H]2[C@@H](c3cc(C(F)(F)F)cc(C(F)(F)F)c3)NC(=O)N12 [Example 1, 4-(5-(2-((1R,5 S,7aS)-1-(3,5-bis(trifluoromethyl)phenyl)-3-oxohexahydro-1H-pyrrolo[1,2-c]imidazol-5-yl)-4-(trifluoromethyl)phenyl)-6-methoxypyridin-3-yl)-3-methylbenzoic acid] | 335 | 
2 | COc1ncc(-c2ccc(C(=O)NC3(C#N)CC3)cc2C)cc1-c1ccc(C(F)(F)F)cc1[C@@H]1CC[C@H]2[C@@H](c3cc(C(F)(F)F)cc(C(F)(F)F)c3)NC(=O)N12 [Example 2, 4-{5-[2-{(1R,5S,7aS)-1-[3,5-bis(trifluoromethyl)phenyl]-3-oxohexahydro-1H-pyrrolo[1,2-c]imidazol-5-yl}-4-(trifluoromethyl)phenyl]-6-methoxypyridin-3-yl}-N-(1-cyanocyclopropyl)-3-methylbenzamide] | 276 | 
3 | COc1ccc(C2CCC(C(=O)O)CC2)cc1-c1ccc(C(F)(F)F)cc1[C@@H]1CC[C@H]2[C@@H](c3cc(C(F)(F)F)cc(C(F)(F)F)c3)NC(=O)N12 (stereo partly drawn) [Example 3, 4-(2′-((1R,5 S,7aS)-1-(3,5-bis(trifluoromethyl)phenyl)-3-oxohexahydro-1H-pyrrolo[1,2-c]imidazol-5-yl)-6-methoxy-4′-(trifluoromethyl)-[1,1′-biphenyl]-3-yl)cyclohexanecarboxylic acid] | 1730 | 
4 | COc1ncc(-c2ccc(C(=O)O)cc2C)cc1-c1ccc(C(F)(F)F)cc1[C@@H]1CC[C@H]2[C@@H](c3cc(C(F)(F)F)cc(C(F)(F)F)c3)N(C)C(=O)N12 [Example 4, 4-{5-[2-{(1R,5S,7aS)-1-[3,5-bis(trifluoromethyl)phenyl]-2-methyl-3-oxohexahydro-1H-pyrrolo[1,2-c]imidazol-5-yl}-4-(trifluoromethyl)phenyl]-6-methoxypyridin-3-yl}-3-methylbenzoic acid] |  | 1500
5 | COc1ncc(-c2c(C)cc(C(=O)O)cc2C)cc1-c1ccc(C(F)(F)F)cc1[C@@H]1CC[C@H]2[C@@H](c3cc(C(F)(F)F)cc(C(F)(F)F)c3)NC(=O)N12 [Example 5, 4-{5-[2-{(1R,5S,7aS)-1-[3,5-bis(trifluoromethyl)phenyl]-3-oxohexahydro-1H-pyrrolo[1,2-c]imidazol-5-yl}-4-(trifluoromethyl)phenyl]-6-methoxypyridin-3-yl}-3,5-dimethylbenzoic acid] |  | 392
6 | COc1cc(F)c(C(C)C)cc1-c1ccc(C(F)(F)F)cc1[C@@H]1CC[C@H]2[C@@H](c3cc(F)cc(C(F)(F)F)c3)NC(=O)N12 [Example 6] |  | 1070
7 | COc1ccc(CCC(=O)O)cc1-c1ccc(C(F)(F)F)cc1[C@@H]1CC[C@H]2[C@@H](c3cc(C(F)(F)F)cc(C(F)(F)F)c3)NC(=O)N12 [Example 7, 3-[2′-{(1R,5S,7aS)-1-[3,5-bis(trifluoromethyl)phenyl]-3-oxohexahydro-1H-pyrrolo[1,2-c]imidazol-5-yl}-6-methoxy-4′-(trifluoromethyl)biphenyl-3-yl]propanoic acid] |  | 1200
8 | COc1ccc(-c2ccc(C(=O)O)cc2C)cc1-c1ccc(C(F)(F)F)cc1[C@@H]1CC[C@H]2[C@@H](c3cc(C(F)(F)F)cc(C(F)(F)F)c3)NC(=O)N12 [Example 9] |  | 1360
9 | COc1ccc(CCC(=O)O)cc1-c1ccc(C(F)(F)F)cc1[C@@H]1CC[C@H]2[C@@H](c3cc(C(F)(F)F)cc(C(F)(F)F)c3)N(C)C(=O)N12 [Example 10, 3-[2′-{(1R,5S,7aS)-1-[3,5-bis(trifluoromethyl)phenyl]-2-methyl-3-oxohexahydro-1H-pyrrolo[1,2-c]imidazol-5-yl}-6-methoxy-4′-(trifluoromethyl)biphenyl-3-yl]propanoic acid] |  | 2950
10 | COc1ccc(-c2ccc(C(=O)O)cc2C)cc1-c1ccc(C(F)(F)F)cc1[C@@H]1CC[C@H]2[C@@H](c3cc(C(F)(F)F)cc(C(F)(F)F)c3)N(C)C(=O)N12 [Example 12, 2″-{(1R,5S,7aS)-1-[3,5-bis(trifluoromethyl)phenyl]-2-methyl-3-oxohexahydro-1H-pyrrolo[1,2-c]imidazol-5-yl}-4′-methoxy-2-methyl-4″-(trifluoromethyl)-l,1′:3′,l″-terphenyl-4-carboxylic acid] |  | 1420
11 | COc1ccc(-c2cccnc2C)cc1-c1ccc(C(F)(F)F)cc1[C@@H]1CC[C@H]2[C@@H](c3cc(C(F)(F)F)cc(C(F)(F)F)c3)NC(=O)N12 [Example 13, (1R,5S,7aS)-1-[3,5-bis(trifluoromethyl)phenyl]-5-[2′-methoxy-5′-(2-methylpyridin-3-yl)-4-(trifluoromethyl)biphenyl-2-yl]hexahydro-3H-pyrrolo[1,2-c]imidazol-3-one] |  | 795
12 | COc1ccc(-c2ccc(C(=O)O)nc2C)cc1-c1ccc(C(F)(F)F)cc1[C@@H]1CC[C@H]2[C@@H](c3cc(C(F)(F)F)cc(C(F)(F)F)c3)NC(=O)N12 [Example 14, 5-[2′-{(1R,5S,7aS)-1-[3,5-bis(trifluoromethyl)phenyl]-3-oxohexahydro-1H-pyrrolo[1,2-c]imidazol-5-yl}-methoxy-4′-(trifluoromethyl)biphenyl-3-yl]-6-methylpyridine-2-carboxylic acid] |  | 1930
13 | COc1ccc([C@H]2[C@H](C)C(=O)N[C@@H]2C)cc1-c1ccc(C(F)(F)F)cc1[C@@H]1CC[C@H]2[C@@H](c3cc(C(F)(F)F)cc(C(F)(F)F)c3)NC(=O)N12 [Example 15, (1R,5S,7aS)-1-[3,5-bis(trifluoromethyl)phenyl]-5-{5′-[(2R,3R,4S)-2,4-dimethyl-5-oxopyrrolidin-3-yl]-2′-methoxy-4-(trifluoromethyl)biphenyl-2-yl}hexahydro-3H-pyrrolo[1,2-c]imidazol-3-one] |  | 1740
14 | COc1ccc(-c2ccc(C(=O)O)cc2C)cc1-c1ccc(C(F)(F)F)cc1[C@@H]1CC[C@H]2[C@@H](c3cc(F)cc(C(F)(F)F)c3)NC(=O)N12 [Example 16, 2″-{(1R,5S,7aS)-1-[3-fluoro-5-(trifluoromethyl)phenyl]-3-oxohexahydro-1H-pyrrolo[1,2-c]imidazol-5-yl}-4′-methoxy-2-methyl-4″-(trifluoromethyl)-1,1′:3′,1″-terphenyl-4-carboxylic acid] |  | 1510
15 | COc1ccc(CCC(=O)O)cc1-c1ccc(C(F)(F)F)cc1[C@@H]1CC[C@H]2[C@@H](c3cc(F)cc(C(F)(F)F)c3)NC(=O)N12 [Example 17, 3-[2′-{(1R,5S,7aS)-1-[3-fluoro-5-(trifluoromethyl)phenyl]-3-oxohexahydro-1H-pyrrolo[1,2-c]imidazol-5-yl}-6-methoxy-4′-(trifluoromethyl)biphenyl-3-yl]propanoic acid] |  | 3160
16 | COc1ncc(-c2ccc(C(=O)O)cc2C)cc1-c1ccc(C(F)(F)F)cc1[C@@H]1CC[C@H]2[C@@H](c3ccnc(C(F)(F)F)c3)NC(=O)N12 [Example 18, 4-{6-methoxy-5-[2-{(1R,5S,7aS)-3-oxo-1-[2-(trifluoromethyl)pyridin-4-yl]hexahydro-1H-pyrrolo[1,2-c]imidazol-5-yl}-4-(trifluoromethyl)phenyl]pyridin-3-yl}-3-methylbenzoic acid] |  | 5040
